Assay results published in patent US20250296971A1, “GASTRIC INHIBITORY PEPTIDE RECEPTOR LIGANDS” (priority 2021, published 2025).
*1 amine or outer side, *2 acyl side, *3 side chain or, on linkers, in order; H or OH if unused. Where a SMILES comes first, the peptide text is derived from it. Bridges are numbered along the chain shown (N, C = ends). Side-chain parts run from the residue outwards. [ ]: non-standard residue; d: D form. The star is where a group is joined. X18 = O=C(CCN(CC(=O)[*:2])[*:1])NC[C@H](O)[C@@H](O)[C@H](O)[C@H](O)CO; NH(1-deoxy-D-glucityl) = OC[C@@H](O)[C@@H](O)[C@H](O)[C@@H](O)CN*; Pro(trans-4-NH2) = O=C([C@@H]1C[C@@H](N[*:3])CN1[*:1])[*:2]; Trp(5-Cl) = N[C@@H](Cc1c[nH]c2ccc(Cl)cc12)C(=O)O; Pyridine(2,6-diCH2) = c1cc(C[*:1])nc(C[*:2])c1; Pro(trans-4-F) = O=C(O)[C@@H]1C[C@@H](F)CN1; X24 = OC[C@H](CSCc1cccc(C[*:1])n1)N[*:2]; Glutaryl = O=C(CCCC(=O)[*:2])[*:1]; Cya = N[C@@H](CS(=O)(=O)O)C(=O)O; Hyp = O=C(O)[C@@H]1C[C@@H](O)CN1; X1 = O=C(CN1CCC(N[*:1])CC1)[*:2]; Nphe = O=C(O)CNCc1ccccc1; Thp = NC1(C(=O)O)CCOCC1; Nleu = CC(C)CNCC(=O)O; Nlys = NCCCCNCC(=O)O; Sar = CNCC(=O)O

biological target: T1, GIPR (CHO-K1-hGIPR cells) (Homo sapiens, UniProt P48546); assay: FACS binding assay; conditions: competition with 20 nM GIP-057, 4° C., 1 hour, read-out: pIC50 Category (converted)
T1 construct: host or cells: CHO-K1
T1 sequence (P48546 22-466): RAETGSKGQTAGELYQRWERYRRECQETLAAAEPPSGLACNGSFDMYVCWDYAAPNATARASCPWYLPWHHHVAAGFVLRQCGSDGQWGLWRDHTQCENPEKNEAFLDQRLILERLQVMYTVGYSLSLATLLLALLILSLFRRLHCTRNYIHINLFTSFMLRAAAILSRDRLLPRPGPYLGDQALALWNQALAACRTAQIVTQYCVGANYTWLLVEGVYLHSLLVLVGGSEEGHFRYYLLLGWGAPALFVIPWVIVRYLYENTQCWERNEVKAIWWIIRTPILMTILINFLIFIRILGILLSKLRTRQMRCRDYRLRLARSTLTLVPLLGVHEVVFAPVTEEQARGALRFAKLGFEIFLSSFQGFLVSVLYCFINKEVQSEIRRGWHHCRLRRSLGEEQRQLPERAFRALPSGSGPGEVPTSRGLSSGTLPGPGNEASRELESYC
In short: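 CHO-K1 cells expressing human GIPR, washed in PBS/1% FCS, then stained with 1 μg/mL APC-streptavidin for 30 min on ice.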

IC50, < 10 nM:
CC[C@H](C)[C@@H]1NC(=O)[C@H](CC(C)C)NC(=O)C2(CCOCC2)NC(=O)[C@@H](NC(=O)[C@@H](CC(C)C)NC(=O)[C@H](CCC(=O)O)NC(=O)[C@@H]2C[C@@H](O)CN2C(=O)[C@H](Cc2c[nH]c3ccc(Cl)cc23)NC(=O)[C@H](Cc2c[nH]c3ccccc23)NC(=O)[C@H](CC(=O)O)NC(=O)CCCC(=O)NC[C@H](O)[C@@H](O)[C@H](O)[C@H](O)CO)CSCc2cccc(n2)CSC[C@@H](C(=O)NC2CCN(CC(=O)N[C@H](CCC(=O)NC[C@H](O)[C@@H](O)[C@H](O)[C@H](O)CO)C(N)=O)CC2)NC1=O [GIP-174, AGLU-Glutar-Asp-Trp-5Clw-Hyp-Glu-leu-[Cys(2Lut)-Thp-Leu-Ile-Cys]-APAc-glu(AGLU)-NH2] ({NH(1-deoxy-D-glucityl)-Glutaryl}-DW[Trp(5-Cl)][Hyp]E[dL]C[Thp]LIC[X1][dE](NH(1-deoxy-D-glucityl))-NH2; linker 7-11 via Pyridine(2,6-diCH2))
CC[C@H](C)[C@@H]1NC(=O)[C@H](CC(C)C)NC(=O)C2(CCOCC2)NC(=O)[C@@H](NC(=O)[C@@H](CC(C)C)NC(=O)[C@H](CCC(=O)O)NC(=O)[C@@H]2C[C@@H](NC(=O)CCCC(=O)NC[C@H](O)[C@@H](O)[C@H](O)[C@H](O)CO)CN2C(=O)[C@H](Cc2c[nH]c3ccc(Cl)cc23)NC(=O)[C@H](Cc2c[nH]c3ccccc23)NC(=O)[C@H](CC(=O)O)NC(C)=O)CSCc2cccc(n2)CSC[C@@H](C(N)=O)NC1=O [GIP-175, Ac-Asp-Trp-5Clw-Tap (AGLU-Glutar)-Glu-leu-[Cys(2Lut)-Thp-Leu-Ile-Cys]-NH2] (Ac-DW[Trp(5-Cl)][Pro(trans-4-NH2)]([Glutaryl-NH(1-deoxy-D-glucityl)])E[dL]C[Thp]LIC-NH2; linker 7-11 via Pyridine(2,6-diCH2))
CC[C@H](C)[C@@H]1NC(=O)[C@H](CC(C)C)NC(=O)C2(CCOCC2)NC(=O)[C@@H](NC(=O)[C@@H](CC(C)C)NC(=O)[C@H](CCC(=O)O)NC(=O)CN(CCC(=O)NC[C@H](O)[C@@H](O)[C@H](O)[C@H](O)CO)C(=O)[C@H](Cc2c[nH]c3ccc(Cl)cc23)NC(=O)[C@H](Cc2c[nH]c3ccccc23)NC(=O)[C@H](CC(=O)O)NC(C)=O)CSCc2cccc(n2)CSC[C@@H](C(N)=O)NC1=O [GIP-176, Ac-Asp-Trp-5Clw-Nglu(AGLU)-Glu-leu-[Cys(2Lut)-Thp-Leu-Ile-Cys]-NH2] (Ac-DW[Trp(5-Cl)][X18]E[dL]C[Thp]LIC-NH2; linker 7-11 via Pyridine(2,6-diCH2))
CC[C@H](C)[C@@H]1NC(=O)[C@H](CC(C)C)NC(=O)C2(CCOCC2)NC(=O)[C@@H](NC(=O)[C@@H](CC(C)C)NC(=O)[C@H](CCC(=O)O)NC(=O)[C@@H]2C[C@@H](O)CN2C(=O)[C@H](Cc2c[nH]c3ccc(Cl)cc23)NC(=O)[C@H](Cc2c[nH]c3ccccc23)NC(=O)[C@H](CC(=O)O)NC(C)=O)CSCc2cccc(n2)CSC[C@@H](C(=O)NC2CCN(CC(=O)N[C@H](CCC(=O)NC[C@H](O)[C@@H](O)[C@H](O)[C@H](O)CO)C(N)=O)CC2)NC1=O [GIP-177, Ac-Asp-Trp-5Clw-Hyp-Glu-leu-[Cys(2Lut)-Thp-Leu-Ile-Cys]-APAc-glu(AGLU)-NH2] (Ac-DW[Trp(5-Cl)][Hyp]E[dL]C[Thp]LIC[X1][dE](NH(1-deoxy-D-glucityl))-NH2; linker 7-11 via Pyridine(2,6-diCH2))
CC[C@H](C)[C@@H]1NC(=O)[C@H](CC(C)C)NC(=O)C2(CCOCC2)NC(=O)[C@@H](NC(=O)[C@@H](CC(C)C)NC(=O)[C@H](CCC(=O)O)NC(=O)[C@@H]2C[C@@H](O)CN2C(=O)[C@H](Cc2c[nH]c3ccc(Cl)cc23)NC(=O)[C@H](Cc2c[nH]c3ccccc23)NC(=O)[C@H](CC(=O)O)NC(=O)CCCC(=O)NC[C@H](O)[C@@H](O)[C@H](O)[C@H](O)CO)CSCc2cccc(n2)CSC[C@@H](C(N)=O)NC1=O [GIP-178, AGLU-Glutar-Asp-Trp-5Clw-Hyp-Glu-leu-[Cys(2Lut)-Thp-Leu-Ile-Cys]-NH2] ({NH(1-deoxy-D-glucityl)-Glutaryl}-DW[Trp(5-Cl)][Hyp]E[dL]C[Thp]LIC-NH2; linker 7-11 via Pyridine(2,6-diCH2))
CC[C@H](C)[C@@H]1NC(=O)[C@H](CC(C)C)NC(=O)C2(CCOCC2)NC(=O)[C@@H](NC(=O)[C@@H](CC(C)C)NC(=O)[C@H](CCC(=O)O)NC(=O)[C@@H]2C[C@@H](O)CN2C(=O)[C@H](Cc2c[nH]c3ccc(Cl)cc23)NC(=O)[C@H](Cc2c[nH]c3ccccc23)NC(=O)[C@H](CC(=O)O)NC(C)=O)CSCc2cccc(n2)CSC[C@@H](C(N)=O)NC1=O [GIP-180, Ac-Asp-Trp-5Clw-Hyp-Glu-leu-[Cys(2Lut)-Thp-Leu-Ile-Cys]-NH2] (Ac-DW[Trp(5-Cl)][Hyp]E[dL]C[Thp]LIC-NH2; linker 7-11 via Pyridine(2,6-diCH2))
CC[C@H](C)[C@@H]1NC(=O)[C@H](CC(C)C)NC(=O)C2(CCOCC2)NC(=O)[C@@H](NC(=O)[C@@H](CC(C)C)NC(=O)[C@H](CCC(=O)O)NC(=O)[C@@H]2C[C@@H](O)CN2C(=O)[C@H](Cc2c[nH]c3ccc(Cl)cc23)NC(=O)[C@H](Cc2c[nH]c3ccccc23)NC(=O)[C@H](CC(=O)O)NC(C)=O)CSCc2cccc(n2)CSC[C@@H](CO)NC1=O [GIP-182, Ac-Asp-Trp-5Clw-Hyp-Glu-leu-[Cys(2Lut)-Thp-Leu-Ile-Cysol]-OH] (Ac-DW[Trp(5-Cl)][Hyp]E[dL]C[Thp]LI; linker 7-C via X24)
CC[C@H](C)[C@@H]1NC(=O)[C@H](CC(C)C)NC(=O)C2(CCOCC2)NC(=O)[C@@H](NC(=O)[C@@H](CC(C)C)NC(=O)[C@H](CCC(=O)O)NC(=O)CN(C)C(=O)[C@H](Cc2c[nH]c3ccc(Cl)cc23)NC(=O)[C@H](Cc2c[nH]c3ccccc23)NC(=O)[C@H](CC(=O)O)NC(C)=O)CSCc2cccc(n2)CSC[C@@H](C(N)=O)NC1=O [GIP-183, Ac-Asp-Trp-5Clw-Nmg-Glu-leu-[Cys(2Lut)-Thp-Leu-Ile-Cys]-NH2] (Ac-DW[Trp(5-Cl)][Sar]E[dL]C[Thp]LIC-NH2; linker 7-11 via Pyridine(2,6-diCH2))
CC[C@H](C)[C@@H]1NC(=O)[C@H](CC(C)C)NC(=O)C2(CCOCC2)NC(=O)[C@@H](NC(=O)[C@@H](CC(C)C)NC(=O)[C@H](CCC(=O)O)NC(=O)CN(CC(C)C)C(=O)[C@H](Cc2c[nH]c3ccc(Cl)cc23)NC(=O)[C@H](Cc2c[nH]c3ccccc23)NC(=O)[C@H](CC(=O)O)NC(C)=O)CSCc2cccc(n2)CSC[C@@H](C(N)=O)NC1=O [GIP-184, Ac-Asp-Trp-5Clw-Nleu-Glu-leu-[Cys(2Lut)-Thp-Leu-Ile-Cys]-NH2] (Ac-DW[Trp(5-Cl)][Nleu]E[dL]C[Thp]LIC-NH2; linker 7-11 via Pyridine(2,6-diCH2))
CC[C@H](C)[C@@H]1NC(=O)[C@H](CC(C)C)NC(=O)C2(CCOCC2)NC(=O)[C@@H](NC(=O)[C@@H](CC(C)C)NC(=O)[C@H](CCC(=O)O)NC(=O)CN(Cc2ccccc2)C(=O)[C@H](Cc2c[nH]c3ccc(Cl)cc23)NC(=O)[C@H](Cc2c[nH]c3ccccc23)NC(=O)[C@H](CC(=O)O)NC(C)=O)CSCc2cccc(n2)CSC[C@@H](C(N)=O)NC1=O [GIP-185, Ac-Asp-Trp-5Clw-Nphe-Glu-leu-[Cys(2Lut)-Thp-Leu-Ile-Cys]-NH2] (Ac-DW[Trp(5-Cl)][Nphe]E[dL]C[Thp]LIC-NH2; linker 7-11 via Pyridine(2,6-diCH2))
CC[C@H](C)[C@@H]1NC(=O)[C@H](CC(C)C)NC(=O)C2(CCOCC2)NC(=O)[C@@H](NC(=O)[C@@H](CC(C)C)NC(=O)[C@H](CCC(=O)O)NC(=O)CN(CCCCN)C(=O)[C@H](Cc2c[nH]c3ccc(Cl)cc23)NC(=O)[C@H](Cc2c[nH]c3ccccc23)NC(=O)[C@H](CC(=O)O)NC(C)=O)CSCc2cccc(n2)CSC[C@@H](C(N)=O)NC1=O [GIP-186, Ac-Asp-Trp-5Clw-Nlys-Glu-leu-[Cys(2Lut)-Thp-Leu-Ile-Cys]-NH2] (Ac-DW[Trp(5-Cl)][Nlys]E[dL]C[Thp]LIC-NH2; linker 7-11 via Pyridine(2,6-diCH2))
CC[C@H](C)[C@@H]1NC(=O)[C@H](CC(C)C)NC(=O)C2(CCOCC2)NC(=O)[C@@H](NC(=O)[C@@H](CC(C)C)NC(=O)[C@H](CCC(=O)O)NC(=O)[C@@H]2C[C@@H](F)CN2C(=O)[C@H](Cc2c[nH]c3ccc(Cl)cc23)NC(=O)[C@H](Cc2c[nH]c3ccccc23)NC(=O)[C@H](CC(=O)O)NC(C)=O)CSCc2cccc(n2)CSC[C@@H](C(N)=O)NC1=O [GIP-187, Ac-Asp-Trp-5Clw-4Tfp-Glu-leu-[Cys(2Lut)-Thp-Leu-Ile-Cys]-NH2] (Ac-DW[Trp(5-Cl)][Pro(trans-4-F)]E[dL]C[Thp]LIC-NH2; linker 7-11 via Pyridine(2,6-diCH2))
CC[C@H](C)[C@@H]1NC(=O)[C@H](CC(C)C)NC(=O)C2(CCOCC2)NC(=O)[C@@H](NC(=O)[C@@H](CC(C)C)NC(=O)[C@H](CCC(=O)O)NC(=O)[C@@H]2C[C@@H](O)CN2C(=O)[C@H](Cc2c[nH]c3ccc(Cl)cc23)NC(=O)[C@H](Cc2c[nH]c3ccccc23)NC(=O)[C@H](CS(=O)(=O)O)NC(C)=O)CSCc2cccc(n2)CSC[C@@H](C(N)=O)NC1=O [GIP-189, Ac-Cya-Trp-5Clw-Hyp-Glu-leu-[Cys(2Lut)-Thp-Leu-Ile-Cys]-NH2] (Ac-[Cya]W[Trp(5-Cl)][Hyp]E[dL]C[Thp]LIC-NH2; linker 7-11 via Pyridine(2,6-diCH2))
